From US20220009909A1, “ADAMTS INHIBITORS, PREPARATION METHODS AND MEDICINAL USES THEREOF” (Eternity Bioscience Inc., priority 2020, published 2022) come the findings set out here.

Test [1] addresses T1, ADAMTS-5 recombinant protein (Homo sapiens, UniProt Q9UNA0).
T1 construct: purchased R&D Systems 2198-AD
T1 sequence (Q9UNA0 262-622 limits assumed): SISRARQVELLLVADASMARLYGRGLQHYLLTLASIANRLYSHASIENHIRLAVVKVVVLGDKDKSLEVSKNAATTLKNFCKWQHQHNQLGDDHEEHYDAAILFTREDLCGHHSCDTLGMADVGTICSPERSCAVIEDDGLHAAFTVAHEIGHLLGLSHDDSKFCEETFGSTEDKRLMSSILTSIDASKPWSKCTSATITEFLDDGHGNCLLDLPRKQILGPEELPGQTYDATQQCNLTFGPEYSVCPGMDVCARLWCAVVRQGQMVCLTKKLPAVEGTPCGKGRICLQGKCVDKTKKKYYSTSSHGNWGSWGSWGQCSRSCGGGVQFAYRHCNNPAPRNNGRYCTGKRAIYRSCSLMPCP
Kind of test: In vitro fluorescence (FRET-peptide) enzymatic assay of ADAMTS-5 activity. It counts as biochemical. The settings on record: FRET peptide substrate 8 μM, 10 nM enzyme, 37° C. 3 hours. On the procedure:
(§1) A FRET (fluorescence resonance energy transfer) peptide was cleaved by recombinant ADAMTS-4 or ADAMTS-5 proteins into two separate fragments resulting in an increase of fluorescence signal which was quantified. The peptide was 5-FAM-TEGEARGSVILLK (5-TAMRA)K—NH2, customized from ANASPEC. ADAMTS-4 recombinant protein (4307-AD) and ADAMTS-5 recombinant protein (2198-AD) were purchased from R&D Systems.
(§2) An assay buffer containing 50 mM HEPES pH 7.5, 100 mM NaCl, 5 mM CaCl2, 0.1% CHAPS and 5% Glycerol was prepared. A volume of 2.5 μl of compound in the assay buffer was dispensed to a 384-well plate, and 2.5 μl of ADAMTS-4 or ADAMTS-5 protein (final concentration in the reaction was 10 nM) was added. The compounds and proteins were pre-incubated at room temperature for 15 minutes. Then, 5 μl of substrate was added to each well. The final substrate concentrations for ADAMTS-4 and ADAMTS-5 were 15 μM and 8 μM, respectively. The fluorescence signal in each well was determined, after incubation at 37° C. for 3 hours, on a TECAN plate reader (Excitation, 490 nm; Emission, 520 nm).
(§3) The data was inputted into GraphPad Prism, and the IC50 values were calculated using function “log (inhibitor) vs. response-Variable slope (four parameters)”, (See Table 1)

For test [2], the target named is T2, ADAMTS-4 recombinant protein (Homo sapiens, UniProt O75173).
T2 construct: purchased R&D Systems 4307-AD
T2 sequence (O75173 213-685 limits assumed): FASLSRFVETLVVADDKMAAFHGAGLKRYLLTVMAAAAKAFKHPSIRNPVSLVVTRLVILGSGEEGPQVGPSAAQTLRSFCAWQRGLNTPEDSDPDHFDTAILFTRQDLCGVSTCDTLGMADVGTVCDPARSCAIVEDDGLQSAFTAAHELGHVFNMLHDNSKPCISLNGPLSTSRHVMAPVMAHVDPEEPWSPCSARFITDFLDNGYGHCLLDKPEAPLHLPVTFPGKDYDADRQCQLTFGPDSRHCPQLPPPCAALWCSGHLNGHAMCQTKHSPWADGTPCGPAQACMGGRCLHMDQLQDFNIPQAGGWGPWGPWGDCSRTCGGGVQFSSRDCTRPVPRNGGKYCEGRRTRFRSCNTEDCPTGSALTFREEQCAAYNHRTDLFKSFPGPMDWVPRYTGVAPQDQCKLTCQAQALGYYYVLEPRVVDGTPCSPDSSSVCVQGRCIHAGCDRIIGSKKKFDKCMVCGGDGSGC
As to the kind of experiment: In vitro fluorescence (FRET-peptide) enzymatic assay of ADAMTS-4 activity. As to conditions: FRET peptide substrate 15 μM, 10 nM enzyme, 37° C. 3 hours. Type of test: biochemical. On the procedure:
as §1, §2, §3

Test [3] deals with T1, ADAMTS-5 recombinant protein. As to the kind of experiment: Aggrecan-IGD enzymatic assay for ADAMTS-5 inhibitors (ARGSVIL-peptide ELISA). It counts as biochemical. The settings on record: aggrecan-IGD protein substrate, 37° C. 45 minutes. On the procedure:
In this assay, the enzymatic activity of recombinant ADAMTS-5 protein (2198-AD, R&D Systems) was assayed with a protein substrate, the aggrecan IGD protein. The aggrecan IGD protein is a polypeptide connecting human aggrecan globular domains 1 and 2 (T331-G458) expressed in E. coli with a C-terminal His-tag (BIOTEZ, 30411000). The enzymatic product ARGSVIL-peptide was detected using an ELISA kit from BioTEZ (30510111). An assay buffer containing 50 mM HEPES pH 7.5, 100 mM NaCl, 5 mM CaCl2, 0.1% CHAPS and 5% Glycerol was prepared. Recombinant ADAMTS-5 protein was diluted to 0.3 nM in the assay buffer. Ten μL of buffer and 10 μl of compound solution was transferred to each well of a 96-well plate and incubated at room temperature for 15 minutes. Substrate aggrecan-IGD was diluted to 100 nM with the assay buffer and 20 μl was added to each well. The plate was incubated at 37° C. for 45 minutes. After incubation, the newly generated epitope ARGSVIL-peptides were measured using the Aggrecanase Activity ELISA Assay Kit following the manufacturer's instructions. Then, 100 μl of stop solution was added and the absorbance of each well was read at 450 nm, using […] as reference on a TECAN plate reader.
A standard curve of the ELISA assay was generated in GraphPad Prism using Sigmoidal 4PL function and the corresponding peptide concentrations were calculated based on the standard curve. The IC50 values were calculated using function “log (inhibitor) vs. response-Variable slope (four parameters)”. (See Table 2).

Test [4] deals with mouse femoral head cartilage. As to the kind of experiment: Mouse cartilage explant assay (IL-1α induced GAG release). Type of test: cell-based. The settings on record: inhibition of GAG release, IL-1α 1 ng/mL, 72 hours; for inhibition at 2 µM: compound 2 μM, read-out: Inhibiton % at 2 μM; for inhibition at 20 µM: compound 20 μM. How it is done: In this assay, fresh mouse femoral head cartilage was treated with IL-1a protein (Sigma-Aldrich, 12778) in culture media, which induced the cartilage catabolism. Then, the GAGs attached to the cleaved aggrecan fragments (released in the media) and the GAGs attached to the intact aggrecan were measured by dimethylmethylene blue dye in the Glycosaminoglycans Assay Kit (Chondrex, 6022).
Femoral head cartilage samples were isolated from mice (25 days old, male, C57BL/6, from Charles River Lab) and put into 2.0 mL tubes filled-up with media (DMEM, 10% FBS, 4 mM Glutamine, penicillin-streptomycin, 20 mM HEPES). 200 μl of media without FBS was added to each well of a 48-well plate, and one piece of cartilage was transferred to a well in the plate. Then the media was aspirated, and compounds and IL-1α protein were added to the plate in a total volume of 400 μl of fresh media without FBS. The final concentration of IL-1α was 1 ng/mL. The plate was incubated at 37° C. for 72 hours in a humidified incubator with 5% CO2 supply.
The supernatant was transferred to a 1.5 mL tube and kept at −20° C. Each cartilage sample was transferred to another 1.5 mL tube containing 400 μl of freshly made papain solution. The papain solution contained 125 μg/mL papain (Sigma-Aldrich, P3125), 0.1 M sodium acetate (Sigma-Aldrich. S7899), pH 5.5 and 5 mM EDTA and 5 mM L-cysteine-HCl (Sigma-Aldrich, C7880). The cartilage samples were kept rocking in a 60° C. water bath for 24 hours.
The lysates were vortexed for 10 seconds and spinned at 10,000 rpm for 2 minutes. Both the supernatant and the lysate samples were diluted with PBS and mixed with 100 μL of dye from the Glycosaminoglycans Assay Kit. The optical density from each well was determined with a TECAN plate reader set to a wavelength of 525 nm,
The concentrations of GAGs in the supernatant and lysates were determined based on the standard curve with a dose range of chondroitin sulfate provided in the kit. The percentage of GAG release was calculated as the following: […]
The test compound effect was expressed as the percent of inhibition using the following formula: […]

A word on the IC50: it is the point on the concentration scale where inhibition reaches its midpoint. On to `[2H]C1([2H])c2cc(Cl)c(C(F)(F)F)cc2C(C)N1C(=O)NC[C@@]1(C2CC2)NC(=O)NC1=O` (stereo partly drawn) [Example 9, 5-chloro-N—(((R)-4-cyclopropyl-2,5-dioxoimidazolidin-4-yl)methyl)-1-methyl-6-(trifluoromethyl)isoindoline-3,3-d2-2-carboxamide], for which the IC50 in test [1] came out at 30 nM; in test [2], 53 nM; in test [3], 34 nM.
As for `CC1c2cc(C(F)(F)F)c(Cl)cc2CN1C(=O)NC[C@@]1(C2CC2)NC(=O)NC1=O` (stereo partly drawn) [Example 8, 5-chloro-N—(((R)-4-cyclopropyl-2,5-dioxoimidazolidin-4-yl)methyl)-1-methyl-6-(trifluoromethyl)isoindoline-2-carboxamide], the figures for the IC50 in test [1], in test [2] and in test [3] were 22 nM, 33 nM and 34 nM, respectively.
In the case of `[2H]C1([2H])c2cc(Cl)c(Cl)cc2C(C)N1C(=O)NC[C@@]1(C2CC2)NC(=O)NC1=O` (stereo partly drawn) [Example 11, 5,6-dichloro-N—(((R)-4-cyclopropyl-2,5-dioxoimidazolidin-4-yl)methyl)-1-methylisoindoline-3,3-d2-2-carboxamide], the 50% inhibitory concentration (IC50) turned out to be 30 nM in test [1] and 92 nM in test [2].
As for `O=C1NC(=O)C(CNC(=O)N2Cc3ccc(C(F)(F)F)cc3C2)(C2CC2)N1` (stereo not shown) [Example 4, N-((4-cyclopropyl-2,5-dioxoimidazolidin-4-yl)methyl)-5-(trifluoromethyl)isoindoline-2-carboxamide], the IC50 amounted to 100 nM in test [1], 280 nM in test [2] and 140 nM in test [3]. The inhibition at 2 µM in test [4] stood at 0%. Further, the inhibition at 20 µM in test [4] amounted to 94%.
For `O=C1NC(=O)C(CNC(=O)N2Cc3cc(Cl)c(Cl)cc3C2)(C2CC2)N1` (stereo not shown) [Example 1, 5,6-dichloro-N-((4-cyclopropyl-2,5-dioxoimidazolidin-4-yl)methyl)isoindoline-2-carboxamide], the IC50 is 38 nM in test [1], 31 nM in test [2] and 60 nM in test [3].
As for `O=C1NC(=O)[C@](CNC(=O)N2Cc3cc(Cl)c(Cl)cc3C2)(C2CC2)N1` [Example 1-2, (R)-5,6-dichloro-N-((4-cyclopropyl-2,5-dioxoimidazolidin-4-yl)methyl)isoindoline-2-carboxamide], the figures for the IC50 in test [1], in test [2] and in test [3] were 23 nM, 16 nM and 26 nM, respectively. In addition, the inhibition at 2 µM in test [4] came out at 47%. The molecule also returned an inhibition at 20 µM in test [4] of 87%.
Turning to `CC1c2cc(Cl)c(Cl)cc2CN1C(=O)NC[C@@]1(C2CC2)NC(=O)NC1=O` (stereo partly drawn) [Example 2, 5,6-dichloro-N—(((R)-4-cyclopropyl-2,5-dioxoimidazolidin-4-yl)methyl)-1-methylisoindoline-2-carboxamide], the IC50 in test [1] was 36 nM; in test [2], 42 nM; in test [3], 44 nM.
In the case of `C[C@@H]1c2cc(Cl)c(Cl)cc2CN1C(=O)NC[C@@]1(C2CC2)NC(=O)NC1=O` [Example 2-1, (R)-5,6-dichloro-N—(((R)-4-cyclopropyl-2,5-dioxoimidazolidin-4-yl)methyl)-1-methylisoindoline-2-carboxamide], the IC50 in test [1] was found to be 9 nM; in test [2] it was 34 nM; in test [3], 17 nM. Moreover, in test [4], the inhibition at 2 µM came out at 14%. Further, the inhibition at 20 µM in test [4] came out at 86%.
Regarding `C[C@@H]1c2cc(C(F)(F)F)c(Cl)cc2CN1C(=O)NC[C@@]1(C2CC2)NC(=O)NC1=O` [Example 8-1, (R)-5-chloro-N—(((R)-4-cyclopropyl-2,5-dioxoimidazolidin-4-yl)methyl)-1-methyl-6-(trifluoromethyl)isoindoline-2-carboxamide], the IC50 was found to be 8 nM in test [1], 12 nM in test [2] and 17 nM in test [3]. Moreover, the inhibition at 2 µM in test [4] turned out to be 61%. In test [4], this molecule registered an inhibition at 20 µM of 95%.
Take `O=C1NC(=O)[C@](CNC(=O)N2Cc3cc(Cl)c(C(F)(F)F)cc3C2)(C2CC2)N1` [Example 3, (R)-5-chloro-N-((4-cyclopropyl-2,5-dioxoimidazolidin-4-yl)methyl)-6-(trifluoromethyl)isoindoline-2-carboxamide]: the results for the IC50 in test [1], in test [2] and in test [3] were 40 nM, 39 nM and 40 nM, respectively.
